Laboratory results as given in US9181234B2, “Antibacterial compounds” (priority 2010, dated 2015).
Values after ≈ are worked out from the molar mass of the structure shown.

Assays:
physchem = settings: kinetic from dmso stock
Method in brief: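 DMSO doubling dilutions were diluted twenty-fold into 100 mM citrate (pH 4), PBS (pH 7.4) or carbonate-bicarbonate (pH 9). After 24 h equilibration at room temperature, absorbance was read at 620 nm. The reported value is the highest concentration without measurable precipitate.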

[1] = test system: Staphylococcus aureus (Isolate ID ATCC 29213); assay: Antibacterial activity, MIC, S. aureus; assay type: cell-based; settings: Staphylococcus aureus, ATCC29213, Gram positive strain; broth microdilution or agar dilution
Method in brief: (§1)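 MICs determined by broth microdilution or agar dilution according to CLSI guidelines (M7-A7).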

[2] = test system: Enterococcus faecalis (Isolate ID ATCC 29212); assay: Antibacterial activity, MIC, E. faecalis; assay type: cell-based; settings: Enterococcus faecalis, ATCC29212; Gram positive strain; broth microdilution or agar dilution
Method in brief: as §1

[3] = test system: Streptococcus pyogenes (Isolate ID ATCC 51339); assay: Antibacterial activity, MIC, S. pyogenes; assay type: cell-based; settings: Streptococcus pyogenes, ATCC51339, Gram positive strain; broth microdilution or agar dilution
Method in brief: as §1

[4] = test system: Haemophilus influenzae (Isolate ID ATCC 49247); assay: Antibacterial activity, MIC, H. influenzae; assay type: cell-based; settings: Haemophilus influenzae, ATCC49247; Gram negative strain; broth microdilution or agar dilution
Method in brief: as §1

[5] = pH 7.4, aqueous buffer, Max Solubility
[6] = pH 7.4, aqueous buffer, Solubility (pH 7.4)
[7] = pH 7.4, aqueous buffer, Solubility Range
[8] = pH 7.4, aqueous buffer, Solubility Range (maximum solubility)
[9] = pH 9, aqueous buffer, Max Solubility
[10] = pH 9, aqueous buffer, Solubility Range (maximum solubility)

| SMILES | solubility at 24 h (physchem; [5]) | solubility at 24 h (physchem; [6]) | solubility at 24 h (physchem; [7]) | solubility at 24 h (physchem; [8]) | MIC [1] | MIC [2] | MIC [3] | MIC [4] | solubility at 24 h (physchem; pH 4, aqueous buffer, Max Solubility) | solubility at 24 h (physchem; pH 4, aqueous buffer, Solubility Range (maximum solubility)) | solubility at 24 h (physchem; [9]) | solubility at 24 h (physchem; [10]) |
| --- | --- | --- | --- | --- | --- | --- | --- | --- | --- | --- | --- | --- |
| CCNC(=O)Nc1nc2cc(-c3cnc(N4CCC(C)(C(=O)O)CC4)nc3)cc(-c3ccncn3)c2s1 [Compound 67] | ≥ 800 µg/mL | ≥ 800 µg/mL | > 800 µg/mL | > 800 µg/mL | ≤ 0.25 µg/mL | ≤ 0.25 µg/mL | ≤ 0.25 µg/mL | 1 to 16 µg/mL (≈ 1.93 to 30.9 µM) |  |  |  |  |
| CCNC(=O)Nc1nc2cc(-c3cnc(N4CCC(C)(C(=O)O)CC4)nc3)cc(-c3cc(OCC)ccn3)c2s1 [Compound 68] | ≥ 800 µg/mL | ≥ 800 µg/mL | > 800 µg/mL | > 800 µg/mL | ≤ 0.25 µg/mL | ≤ 0.25 µg/mL | ≤ 0.25 µg/mL | 0.25 to 1 µg/mL (≈ 0.445 to 1.78 µM) |  |  |  |  |
| CCNC(=O)Nc1nc2cc(-c3cnc(N4CCC(C)(C(=O)O)CC4)nc3)cc(-c3ncc(C#N)cc3C)c2s1 [Compound 69] | ≥ 800 µg/mL | ≥ 800 µg/mL | > 800 µg/mL | > 800 µg/mL | 1 to 16 µg/mL (≈ 1.8 to 28.7 µM) | ≤ 0.25 µg/mL | 0.25 to 1 µg/mL (≈ 0.449 to 1.8 µM) | 1 to 16 µg/mL (≈ 1.8 to 28.7 µM) |  |  |  |  |
| CCNC(=O)Nc1nc2cc(-c3cnc(N4CCC(C)(C(=O)O)CC4)nc3)cc(-c3nccc4occc34)c2s1 [Compound 70] | ≥ 800 µg/mL | ≥ 800 µg/mL | > 800 µg/mL | > 800 µg/mL | ≤ 0.25 µg/mL | ≤ 0.25 µg/mL | ≤ 0.25 µg/mL | 1 to 16 µg/mL (≈ 1.79 to 28.7 µM) |  |  |  |  |
| CCNC(=O)Nc1nc2cc(-c3cnc(N4CCC(C)(C(=O)O)CC4)nc3)cc(-c3nccc(N(C)C)c3C#N)c2s1 [Compound 71] |  | 6.25 µg/mL (≈ 10.7 µM) | < 12.5 µg/mL |  | 0.25 to 1 µg/mL (≈ 0.427 to 1.71 µM) | ≤ 0.25 µg/mL | ≤ 0.25 µg/mL | 0.25 to 1 µg/mL (≈ 0.427 to 1.71 µM) | 50 µg/mL (≈ 85.4 µM) | 12.5 to 400 µg/mL (≈ 21.3 to 683 µM) |  |  |
| CCNC(=O)Nc1nc2cc(-c3cnc(N4CCC(C)(C(=O)O)CC4)nc3)cc(/C=N/OC)c2s1 [Compound 72, (E)-1-(5-(2-(3-ethylureido)-7-((methoxyimino)methyl)benzo[d]thiazol-5-yl)pyrimidin-2-yl)-4-methylpiperidine-4-carboxylic acid] | ≥ 800 µg/mL | ≥ 800 µg/mL | > 800 µg/mL | > 800 µg/mL | ≤ 0.25 µg/mL | ≤ 0.25 µg/mL | ≤ 0.25 µg/mL | 0.25 to 1 µg/mL (≈ 0.502 to 2.01 µM) |  |  |  |  |
| CCNC(=O)Nc1nc2cc(-c3cnc(N4CCC(C)(C(=O)O)CC4)nc3)cc(-c3cncc(OC(C)(C)C)n3)c2s1 [Compound 73] |  | 400 µg/mL (≈ 677 µM) | 400 to 800 µg/mL (≈ 677 to 1350 µM) |  | 0.25 to 1 µg/mL (≈ 0.423 to 1.69 µM) | ≤ 0.25 µg/mL | 1 to 16 µg/mL (≈ 1.69 to 27.1 µM) | > 16 µg/mL |  |  | ≥ 800 µg/mL | > 800 µg/mL |
| CCNC(=O)Nc1nc2cc(-c3cnc(N4CCC(C)(C(=O)O)CC4)nc3)cc(C3CCN(C(C)=O)CC3)c2s1 [Compound 74, 1-[5-[7-(1-acetyl-4-piperidyl)-2-(ethylcarbamoylamino)-1,3-benzothiazol-5-yl]pyrimidin-2-yl]-4-methyl-piperidine-4-carboxylic acid] | ≥ 800 µg/mL | ≥ 800 µg/mL | > 800 µg/mL | > 800 µg/mL | > 16 µg/mL | 1 to 16 µg/mL (≈ 1.77 to 28.3 µM) | 1 to 16 µg/mL (≈ 1.77 to 28.3 µM) | > 16 µg/mL |  |  |  |  |
| CCNC(=O)Nc1nc2cc(-c3cnc(N4CCC(C)(C(=O)O)CC4)nc3)cc(-c3cnc(N(C)C)s3)c2s1 [Compound 75] |  | 25 µg/mL (≈ 44.1 µM) | 12.5 to 400 µg/mL (≈ 22.1 to 706 µM) |  | 0.25 to 1 µg/mL (≈ 0.441 to 1.76 µM) | ≤ 0.25 µg/mL | 0.25 to 1 µg/mL (≈ 0.441 to 1.76 µM) | 1 to 16 µg/mL (≈ 1.76 to 28.2 µM) |  |  | 100 µg/mL (≈ 176 µM) | 12.5 to 400 µg/mL (≈ 22.1 to 706 µM) |
| CCNC(=O)Nc1nc2cc(-c3cnc(N4CCC(C)(C(=O)O)CC4)nc3)cc(-c3cnc(N4CCOCC4)s3)c2s1 [Compound 76] | ≥ 800 µg/mL | ≥ 800 µg/mL | > 800 µg/mL | > 800 µg/mL | 1 to 16 µg/mL (≈ 1.64 to 26.3 µM) | ≤ 0.25 µg/mL | 0.25 to 1 µg/mL (≈ 0.411 to 1.64 µM) | > 16 µg/mL |  |  |  |  |
| CCNC(=O)Nc1nc2cc(-c3cnc(N4CCC(C)(C(=O)O)CC4)nc3)cc(-c3cnc(CC)s3)c2s1 [Compound 77] |  | 200 µg/mL (≈ 363 µM) | 12.5 to 400 µg/mL (≈ 22.7 to 725 µM) |  | ≤ 0.25 µg/mL | ≤ 0.25 µg/mL | ≤ 0.25 µg/mL | 1 to 16 µg/mL (≈ 1.81 to 29 µM) |  |  | 400 µg/mL (≈ 725 µM) | 400 to 800 µg/mL (≈ 725 to 1450 µM) |
| CCNC(=O)Nc1nc2cc(-c3cnc(N4CCC(C)(C(=O)O)CC4)nc3)cc(-c3cnc(OCC)s3)c2s1 [Compound 78] |  | 400 µg/mL (≈ 705 µM) | 400 to 800 µg/mL (≈ 705 to 1410 µM) |  | 0.25 to 1 µg/mL (≈ 0.44 to 1.76 µM) | ≤ 0.25 µg/mL | 0.25 to 1 µg/mL (≈ 0.44 to 1.76 µM) | > 16 µg/mL |  |  | ≥ 800 µg/mL | > 800 µg/mL |
| CCNC(=O)Nc1nc2cc(-c3cnc(N4CCC(C)(C(=O)O)CC4)nc3)cc(-c3ccn(C)c(=O)c3)c2s1 [Compound 79] | ≥ 800 µg/mL | ≥ 800 µg/mL | > 800 µg/mL | > 800 µg/mL | > 16 µg/mL | 1 to 16 µg/mL (≈ 1.83 to 29.2 µM) | 1 to 16 µg/mL (≈ 1.83 to 29.2 µM) | > 16 µg/mL |  |  |  |  |
| CCNC(=O)Nc1nc2cc(-c3cnc(N4CCC(C)(C(=O)O)CC4)nc3)cc(-c3cc(=O)n(CCOC)cn3)c2s1 [Compound 80] | 400 µg/mL (≈ 675 µM) | 400 µg/mL (≈ 675 µM) | 400 to 800 µg/mL (≈ 675 to 1350 µM) | 400 to 800 µg/mL (≈ 675 to 1350 µM) | > 16 µg/mL | 1 to 16 µg/mL (≈ 1.69 to 27 µM) | 1 to 16 µg/mL (≈ 1.69 to 27 µM) | 1 to 16 µg/mL (≈ 1.69 to 27 µM) |  |  |  |  |
| CCNC(=O)Nc1nc2cc(-c3cnc(N4CCC(C)(C(=O)O)CC4)nc3)cc(-c3cncc(OC)n3)c2s1 [Compound 81] |  | 200 µg/mL (≈ 365 µM) | 12.5 to 400 µg/mL (≈ 22.8 to 729 µM) |  | ≤ 0.25 µg/mL | ≤ 0.25 µg/mL | ≤ 0.25 µg/mL | 1 to 16 µg/mL (≈ 1.82 to 29.2 µM) |  |  | 400 µg/mL (≈ 729 µM) | 400 to 800 µg/mL (≈ 729 to 1460 µM) |
| CCNC(=O)Nc1nc2cc(-c3cnc(N4CCC(C)(C(=O)O)CC4)nc3)cc(-c3ccc(CC#N)cn3)c2s1 [Compound 82] |  | 200 µg/mL (≈ 359 µM) | 12.5 to 400 µg/mL (≈ 22.5 to 719 µM) |  | ≤ 0.25 µg/mL | ≤ 0.25 µg/mL | ≤ 0.25 µg/mL | 0.25 to 1 µg/mL (≈ 0.449 to 1.8 µM) |  |  | ≥ 800 µg/mL | > 800 µg/mL |
| CCNC(=O)Nc1nc2cc(-c3cnc(N4CCC(C)(C(=O)O)CC4)nc3)cc(-c3cnc(CC)cn3)c2s1 [Compound 83] |  | 200 µg/mL (≈ 366 µM) | 12.5 to 400 µg/mL (≈ 22.9 to 732 µM) |  | ≤ 0.25 µg/mL | ≤ 0.25 µg/mL | ≤ 0.25 µg/mL | 0.25 to 1 µg/mL (≈ 0.457 to 1.83 µM) |  |  | ≥ 800 µg/mL | > 800 µg/mL |
| CCNC(=O)Nc1nc2cc(-c3cnc(N4CCC(C)(C(=O)O)CC4)nc3)cc(-c3nccnc3C)c2s1 [Compound 84] |  | 200 µg/mL (≈ 375 µM) | 12.5 to 400 µg/mL (≈ 23.5 to 751 µM) |  | 1 to 16 µg/mL (≈ 1.88 to 30 µM) | ≤ 0.25 µg/mL | 0.25 to 1 µg/mL (≈ 0.469 to 1.88 µM) | 1 to 16 µg/mL (≈ 1.88 to 30 µM) |  |  | ≥ 800 µg/mL | > 800 µg/mL |
| CCNC(=O)Nc1nc2cc(-c3cnc(N4CCC(C)(C(=O)O)CC4)nc3)cc(-c3cc(C)c(F)cn3)c2s1 [Compound 85] |  | 200 µg/mL (≈ 364 µM) | 12.5 to 400 µg/mL (≈ 22.7 to 728 µM) |  | ≤ 0.25 µg/mL | ≤ 0.25 µg/mL | ≤ 0.25 µg/mL | 0.25 to 1 µg/mL (≈ 0.455 to 1.82 µM) |  |  | ≥ 800 µg/mL | > 800 µg/mL |
